# Test results published in PMC4682813, “The Aminosteroid Derivative RM-133 Shows In Vitro and In Vivo Antitumor Activity in Human Ovarian and Pancreatic Cancers” (PLoS ONE, 2015).
# Read-outs that look alike come from different tables or passages of the source.
# Columns and labels:
# [1] = test system: OVCAR-3 cells; test: MTS cell proliferation (viability) assay, OVCAR-3; format: cell-based; conditions: Homo sapiens, 72 h incubation
# Procedure: Human ovarian (OVCAR-3) and pancreatic (PANC-1) cancer cells were purchased from the American Type Culture Collection (ATCC, Rockville, MD) and maintained in exponential growth in a 5% CO2 humidified atmosphere at 37°C. OVCAR-3 cells were routinely grown in RPMI-1640 medium (Sigma, St. Louis, MO) supplemented with 20% FBS, L-glutamine (2 mM), antibiotics (100 IU penicillin/mL and 100 μg streptomycin/mL), insulin (50 ng/mL), and estradiol (1 nM). For OVCAR-3 cell proliferation assays, the medium used was identical, except for the omission of estradiol. […]
# The cell proliferation assay was performed with a colorimetric method using 3-(4,5-dimethylthiazol-2-yl)-5-(3-carboxymethoxyphenyl)2-(4-sulfophenyl)-2H-tetrazolium (MTS) (Cell Titer 96 Aqueous, Promega, Madison, WI). […] MTS is converted to water-soluble colored formazan by dehydrogenases present in metabolically active cells, and therefore, the MTS assay allows the immediate determination of absorbance of the soluble formazan directly in the cell medium and thus the measurement of viable cells. The A 490 of the medium was determined using a 96-well microplate reader INFINITE 200 PRO series (TECAN, Männedorf, Switzerland). The IC50 value of RM-133 was determined for each of the two cell lines using the GraphPad Prism 7 software (GraphPad Software, Inc., San Diego, CA).
# [2] = mouse, in vivo
# Procedure: Ten ♀ Balb/c mice weighing approximately 23 g were separated in 3 groups. […] Mice in groups 1 and 2 received a total of 8 injections over 4 days and were sacrificed on day 8. Mice behavior was monitored during the whole duration of the experiment, and macroscopic observation of organs was performed upon necropsy.
# [3] = Plasma concentration of RM-133 with different vehicles; format: in vivo, Balb/c mice; conditions: female, Balb/c, mouse, sc, 120 mg/kg, single s.c. 120 mg/kg in 0.1 mL
# [4] = test system: OVCAR-3 tumors xenografted in nu/nu nude mice; test: OVCAR-3 xenografts using the two selected vehicles; format: in vivo
# Source text: All in vivo experiments were approved by our Institutional Animal Care and Use Committee (Comités de protection des animaux de l’Université Laval) and carried out according to the guidelines of the Canadian Council on Animal Care. For xenografts, homozygous ♀ nu/nu nude mice (24–42 days old) were purchased from Charles River Inc. (Saint-Constant, QC, Canada) and housed (four to five) in vinyl micro-isolated ventilated cages, equipped with air lids, which were kept in laminar airflow hoods and maintained under pathogen-limiting conditions. During the acclimatization and study period, the animals were housed under a controlled environment at 22 ± 3°C, with 50 ± 20% relative humidity and light set at 12 h/day (light on at 07:15). Rodent food (Rodent diet #T.2018.15, Harlan Teklad, Madison, WI) and water were provided ad libitum. For nu/nu nude mice, food and water were sterilized prior to dispensing to the animals. Standard Balb/c mice were used for pharmacokinetic studies. Animals were anesthetized with isoflurane and killed by cervical dislocation.
# Fourty ♀ nu/nu nude mice (22–24 g) were inoculated with 5×10^6 OVCAR-3 cells per flank, in 30% matrigel-containing culture medium (0.1 mL). After 23 days, tumor-bearing mice were randomized in 4 groups of 8 to 9 mice each. […] Two control mouse groups, each representing 12 tumors, received only the vehicles. As mentioned above, the tumor area was measured twice weekly and body weight monitored.
# [5] = test system: CYP2D6; parameters: method as in PMID 25300820; conditions: low to moderate risk of drug-drug interactions; cited from earlier work
# [6] = Plasma concentration of RM-133 with different vehicles; format: in vivo, Balb/c mice; conditions: female, Balb/c, mouse, sc, 120 mg/kg, single s.c. 120 mg/kg in 0.1 mL; remark: listed apart in the source
# Source text: Eleven different vehicles were investigated by s.c. injection. These vehicles were formulated as follows: vehicle #1 [propylene glycol:EtOH (92:8)]; vehicle #2 [aqueous 0.4% methylcellulose:EtOH (92:8)]; vehicle #3 [castor oil:EtOH:benzyl alcohol:benzyl benzoate (65:10:10:15)]; vehicle #4 [sunflower oil:EtOH (92:8)]; vehicle #5 [sunflower oil:tetrahydrofuran (92:8)]; vehicle #6 [aqueous 25% β-cyclodextrin:EtOH (92:8)]; vehicle #7 [sesame oil:EtOH:benzyl benzoate:benzyl alcohol:Tween 80 (89.8:7.8:1:1:0.5)]; vehicle #8 [soya oil:EtOH (92:8)]; vehicle #9 [RPMI medium:EtOH (92:8)]; vehicle #10 [saline:dimethyl sulfoxide (DMSO):Tween 80 (89.5:10:0.5)]; and vehicle #11 [saline:benzyl alcohol:carboxymethylcellulose:Tween 80 (98.2:0.9:0.5:0.4)]. The eight vehicles producing the best RM-133 solubility (#1–8) were injected s.c. (0.1 mL) without the test compound (RM-133) for tolerance and behavioral evaluation studies, by observing mice at 0.25, 1, 3, 7, 23, 26, 28, 30, and 96 h post-injection. Finally, RM-133 was injected s.c. once at 120 mg/kg/0.1 mL of the best […] tolerated vehicles (#1,2,4–7) into ♀ Balb/c mice (4 per group), and mice were next monitored with blood collection by cardiac puncture after 3 and 12 h. The plasma concentration of RM-133 was then determined by LC-MS/MS as above.
# [7] = vehicle #7 sesame oil (89.7%) EtOH (7.8%) benzyl benzoate (1%) benzyl alcohol (1%) Tween 80 (0.5%)
# [8] = vehicle #8 soya oil (92%) EtOH (8%)
# [9] = sunflower oil:EtOH (92:8), 240 mg/kg s.c. every other day
# [10] = vehicle #1 propylene glycol (92%) EtOH (8%)
# [11] = vehicle #2 aqueous 0.4% methylcellulose (92%) EtOH (8%)
# [12] = vehicle #4 sunflower oil (92%) EtOH (8%)
# [13] = vehicle #5 sunflower oil (92%) tetrahydrofuran (8%)
# [14] = vehicle #6 aqueous 25% β-cyclodextrin (92%) EtOH (8%)
compound,measurement,setting,value
C#C[C@]1(O)CC[C@H]2[C@@H]3CC[C@H]4C[C@H](O)[C@@H](N5CCN(C(=O)[C@@H]6CCCN6C(=O)c6ccc7ccccc7n6)CC5)C[C@]4(C)[C@H]3CC[C@@]21C [RM-133],IC50,[1],800 nM
same,mice with slightly enlarged kidneys at necropsy,"[2]; female, Balb/c, 24 h",75%
same,adverse effect on mice,[2]; 120 mg/kg,no adverse effect
same,adverse effect on mice,[2]; 240 mg/kg,no adverse effect
same,macroscopic observation of organs at necropsy,[2]; sc,organs did not show any detectable abnormality
same,concentration at 3 h,[3]; [7],302 ± 7 ng/mL
same,concentration at 12 h,[3]; [7],214 ± 8 ng/mL
same,concentration at 3 h,[3]; [8],137 ± 2 ng/mL
same,concentration at 12 h,[3]; [8],52 ± 1 ng/mL
same,day at which tumor growth became significantly different from control,"[4]; aqueous 0.4% methylcellulose:EtOH (92:8), 240 mg/kg s.c. twice a day every other day",15 days
same,tumor size relative to its initial value,"[4]; aqueous 0.4% methylcellulose:EtOH (92:8), 240 mg/kg s.c. twice a day every other day, end of treatment (35 days)",78%
same,OVCAR-3 tumor growth inhibition,"[4]; aqueous 0.4% methylcellulose:EtOH (92:8), 240 mg/kg/0.2 mL s.c. twice a day every other day, after 28 days",100%
same,abnormal behavior or death,"[4]; aqueous 0.4% methylcellulose:EtOH (92:8), 35-day treatment period",neither abnormal behavior nor death
same,reduction of OVCAR-3 xenograft growth,"[4]; methylcellulose-based vehicle, s.c. (abstract)",122%
same,"body weight, treated vs control",[4]; [9],No significant difference
same,day at which the effect on tumor growth became significant,[4]; [9],28 days
same,toxicity symptoms during the study or at necropsy,[4]; [9],no toxicity symptom
same,OVCAR-3 tumor growth inhibition,"[4]; sunflower oil:EtOH (92:8), 240 mg/kg/0.2 mL s.c. once every other day, end of treatment (40 days)",100%
same,tumor growth after treatment was stopped,"[4]; sunflower oil:EtOH (92:8), treatment stopped at day 40, no significant difference seven days after termination",tumor growth resumed
same,inhibition of CYP2D6,[5],weak inhibition
same,concentration at 3 h,[6]; [10],314 ± 2 ng/mL
same,concentration at 12 h,[6]; [10],189 ± 5 ng/mL
same,concentration at 3 h,[6]; [11],449 ± 5 ng/mL
same,concentration at 12 h,[6]; [11],171 ± 10 ng/mL
same,concentration at 3 h,[6]; [12],285 ± 5 ng/mL
same,concentration at 12 h,[6]; [12],173 ± 6 ng/mL
same,concentration at 3 h,[6]; [13],642 ± 20 ng/mL
same,concentration at 12 h,[6]; [13],374 ± 9 ng/mL
same,concentration at 3 h,[6]; [14],2960 ± 121 ng/mL
same,concentration at 12 h,[6]; [14],1780 ± 47 ng/mL
